Test results as given in US20230200390A1, “SELECTIVE HERBICIDES BASED ON SUBSTITUTED ISOXAZOLIN CARBOXAMIDES AND MEFENPYR-DIETHYL” (BAYER AKTIENGESELLSCHAFT, priority 2020, published 2023).

Legend:
Format in all cases: in vivo
[1] = tested on: spring barley, HORVS Montoya; assay: Tank-mix; post-emergence: crop damage by herbicide with/without safener mefenpyr-diethyl; details: 21 DAT
Method in brief: (§1)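 Visual percent crop damage (0–100 relative to untreated plants) assessed 1–3 weeks post-application. Plants in sandy loam were sprayed at the 1–3-leaf stage with herbicide with or without safener at several rates, water volume 300 l/ha.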

[2] = tested on: spring wheat, TRZAS Triso; assay: as above; details: 21 DAT
Method in brief: as §1

[3] = tested on: spring barley, HORVS Montoya; assay: Seed treatment with safener; pre-emergence herbicide, crop damage; details: for HER effect + SAF / Reduction [%] / Reduction [Difference]: mefenpyr-diethyl 0.25 g a.i./kg seed
Protocol: (§2) For the safener seed treatment, sufficient seeds of the respective crops (spring wheat, TRZAS; spring barley, HORVS; maize, ZEAMA) were weighed into screw top glass bottles approximately twice the volume of the seeds.
(§3) The specified safeners, formulated as wettable powder (WP) were weighed out so that the specified rates (g a.i./kg seed) would be obtained, dissolved in water (1 ml water per 10 g of seeds), and added to the seeds to produce a slurry.
(§4) The bottles were capped and then placed in an overhead shaker (set at medium speed for ca. 60 minutes) so that the seeds were evenly coated with the slurry. The bottles were uncapped and the seeds were either placed on paper and dried for an interval of 3-4 hours prior to sowing, or directly sown. Seeds were placed in sandy loam soil in pots of a diameter of 7-8 cm, and covered with soil.
(§5) Pre-emergence application of the specified herbicides was done subsequently, on two sets of plants:
(§6) a) seed treatment with safener, as described above
(§7) The herbicides were formulated as WP and was sprayed onto the soil surface as an aqueous suspension at an equivalent water application rate of 300 l/ha.
(§8) After application, the test plants were kept in the greenhouse under good growth conditions. At intervals up to 4 weeks after application (=28 days after treatment; DAT), % crop damage observed on the treated plants was scored visually in comparison to control plants that had not received any safener or herbicide treatment.
(§9) Values in the table below are mean values of at least 2 replicates.

[4] = tested on: spring wheat, TRZAS Triso; assay: as above; details: for HER effect + SAF / Reduction [%] / Reduction [Difference]: mefenpyr-diethyl 0.25 g a.i./kg seed
Protocol: as §2, §3, §4, §5, §6, §7, §8, §9

[5] = tested on: spring barley, HORVS Montoya; assay: Seed treatment with safener; post-emergence herbicide, crop damage; details: 21 DAT; for HER effect + SAF / Reduction [%] / Reduction [Difference]: mefenpyr-diethyl 0.5 g a.i./kg seed
Method in brief: (§10)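 Crop injury was rated visually in % at 10 and 21 days after post-emergence spraying at the 2-leaf stage. The herbicide was a WP in 300 l/ha water plus 1 l/ha MERO. Plants grew from seed either safener-coated at stated g a.i./kg rates via a milk-diluted slurry, or untreated.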

[6] = tested on: spring wheat, TRZAS Triso; assay: as above; details: 21 DAT; for HER effect + SAF [%] (crop damage) / Reduction [%] / Reduction [Difference]: mefenpyr-diethyl 0.5 g a.i./kg seed; for HER effect [%] (crop damage, herbicide without safener): no safener
Method in brief: as §10

[7] = tested on: spring barley, HORVS Montoya; assay: Treatment 1 day before: safener applied one day before herbicide, crop damage; details: 10 DAT
Description: (§11) Seeds of crops (spring wheat, TRZAS; spring barley, HORVS; maize, ZEAMA) were placed in sandy loam soil in pots of a diameter of 7-8 cm, covered with soil, and cultivated in a greenhouse under good growth conditions until plants were at the 1-3 leaf stage (BBCH 11-13). For split safener and herbicide treatment, first the safener was applied followed by the herbicide treatment on the following day. The safener and herbicides were formulated as WP and sprayed onto the green parts of the plants as an aqueous suspension at an equivalent water application rate of 300 l/ha, with addition of wetting agent and adjuvants (e.g. Mero, 1.5 l/ha; ammonium sulphate, 2 kg/ha). An equivalent set of plants was treated with the herbicides but without the prior safener treatment.
as §8, with “10 and 21” for “At intervals up to 4 weeks after application (=28”, “treatment (DAT) with the herbicide,” for “treatment; DAT),”

[8] = tested on: spring wheat, TRZAS Triso; assay: as above; details: 21 DAT; for HER effect + SAF / Reduction [%] / Reduction [Difference]: mefenpyr-diethyl 100 g a.i./ha 1 day before
Description: as §11
as §8, with “10 and 21” for “At intervals up to 4 weeks after application (=28”, “treatment (DAT) with the herbicide,” for “treatment; DAT),”

[9] = HER 0.5 g a.i./ha + mefenpyr-diethyl 50 g a.i./ha
[10] = HER 2 g a.i./ha + mefenpyr-diethyl 100 g a.i./ha
[11] = HER 1 g a.i./ha + mefenpyr-diethyl 50 g a.i./ha
[12] = HER 4 g a.i./ha + mefenpyr-diethyl 100 g a.i./ha
[13] = HER 5 g a.i./ha pre-emergence, 11 DAT (Interim)
[14] = HER 5 g a.i./ha pre-emergence, 21 DAT (Final)
[15] = HER 15 g a.i./ha pre-emergence, 11 DAT (Interim)
[16] = HER 15 g a.i./ha pre-emergence, 21 DAT (Final)
[17] = herbicide alone 5 g a.i./ha pre-emergence, 11 DAT (Interim)
[18] = herbicide alone 5 g a.i./ha pre-emergence, 21 DAT (Final)
[19] = herbicide alone 15 g a.i./ha pre-emergence, 11 DAT (Interim)
[20] = herbicide alone 15 g a.i./ha pre-emergence, 21 DAT (Final)
[21] = HER 0.5 g a.i./ha post-emergence
[22] = HER 100 g a.i./ha, mefenpyr-diethyl 100 g a.i./ha 1 day before

## C=CC1(C(=O)NC2COC(C(=O)OC)C2)CC(c2cc(F)cc(F)c2)=NO1 (mixture of isomers) [Example 1.68]
[1]; [9]
  HER effect + SAF: 0%
  Reduction [%]: 100%
  Reduction [Difference]: 30
[1]; [10]
  HER effect + SAF: 10%
  Reduction [%]: 75%
  Reduction [Difference]: 30
[1]; herbicide alone 0.5 g a.i./ha
  HER effect: 30%
[1]; herbicide alone 2 g a.i./ha
  HER effect: 40%
[2]; [11]
  HER effect + SAF: 30%
  Reduction [%]: 63%
  Reduction [Difference]: 50
[2]; [12]
  HER effect + SAF: 60%
  Reduction [%]: 29%
  Reduction [Difference]: 25
[2]; herbicide alone 1 g a.i./ha
  HER effect: 80%
[2]; herbicide alone 4 g a.i./ha
  HER effect: 85%
[3]; [13]
  HER effect + SAF: 5%
  Reduction [%]: 80%
  Reduction [Difference]: 20
[3]; [14]
  HER effect + SAF: 5%
  Reduction [%]: 83%
  Reduction [Difference]: 25
[3]; [15]
  HER effect + SAF: 0%
  Reduction [%]: 100%
  Reduction [Difference]: 65
[3]; [16]
  HER effect + SAF: 60%
  Reduction [%]: 25%
  Reduction [Difference]: 20
[3]; [17]
  HER effect: 25%
[3]; [18]
  HER effect: 30%
[3]; [19]
  HER effect: 65%
[3]; [20]
  HER effect: 80%
[4]; [13]
  HER effect + SAF: 15%
  Reduction [%]: 67%
  Reduction [Difference]: 30
[4]; [14]
  HER effect + SAF: 5%
  Reduction [%]: 89%
  Reduction [Difference]: 40
[4]; [15]
  HER effect + SAF: 30%
  Reduction [%]: 63%
  Reduction [Difference]: 50
[4]; [16]
  HER effect + SAF: 30%
  Reduction [%]: 65%
  Reduction [Difference]: 55
[4]; [17]
  HER effect: 45%
[4]; [18]
  HER effect: 45%
[4]; [19]
  HER effect: 80%
[4]; [20]
  HER effect: 85%
[5]; [21]
  HER effect + SAF: 0%
  Reduction [%]: 100%
  Reduction [Difference]: 30
[5]; HER 2 g a.i./ha post-emergence
  HER effect + SAF: 0%
  Reduction [%]: 100%
  Reduction [Difference]: 40
[5]; herbicide alone 0.5 g a.i./ha post-emergence
  HER effect: 30%
[5]; herbicide alone 2 g a.i./ha post-emergence
  HER effect: 40%
[6]; HER dose 1 g a.i./ha
  HER effect + SAF [%] (crop damage): 20%
  Reduction [%]: 75%
  Reduction [Difference]: 60
  HER effect [%] (crop damage, herbicide without safener): 80%
[6]; HER dose 4 g a.i./ha
  HER effect + SAF [%] (crop damage): 30%
  Reduction [%]: 65%
  Reduction [Difference]: 55
  HER effect [%] (crop damage, herbicide without safener): 85%

## CCOC(=O)C1C=CC(NC(=O)C2(C(F)(F)F)CC(c3ccccc3)=NO2)C1 (stereo not shown) [Example 1.9]
[7]; [22]
  HER effect + SAF: 20%
  Reduction [%]: 50%
  Reduction [Difference]: 20
[7]; herbicide alone 100 g a.i./ha
  HER effect: 40%
[8]; HER 100 g a.i./ha
  HER effect + SAF: 20%
  Reduction [%]: 67%
  Reduction [Difference]: 40
[8]; HER 200 g a.i./ha
  HER effect + SAF: 25%
  Reduction [%]: 64%
  Reduction [Difference]: 45
[8]; herbicide alone 100 g a.i./ha
  HER effect: 60%
[8]; herbicide alone 200 g a.i./ha
  HER effect: 70%
